In brackets after ≈: the same amount, converted by molar mass.
What was measured:
[1] = biological target: RAC-alpha serine/threonine-protein kinase (Homo sapiens, UniProt P31749); assay: Inhibition of AKT phosphorylation in human K562 cells; format: cell-based
HeLa [2] = assay: Cytotoxicity against human HeLa cells assessed as reduction in cell viability after 68 hrs by MTT assay; format: functional, cell-based
MCF7 [3] = assay: Cytotoxicity against human MCF7 cells assessed as reduction in cell viability after 68 hrs by MTT assay; format: functional, cell-based; conditions: MCF7, 68 h
K562 [4] = assay: Cytotoxicity against human K562 cells assessed as reduction in cell viability after 68 hrs by MTT assay; format: functional, cell-based; conditions: K562, 68 h
A549 [5] = assay: Cytotoxicity against human A549 cells assessed as reduction in cell viability after 68 hrs by MTT assay; format: functional, cell-based; conditions: A549, 68 h
A549 [6] = assay: Cytotoxicity against human A549 cells assessed as reduction in cell viability by SRB assay; format: functional, cell-based
SK-OV-3 = assay: Cytotoxicity against human SKOV3 cells assessed as reduction in cell viability by SRB assay; format: functional, cell-based
MCF7 [7] = assay: Cytotoxicity against human MCF7 cells assessed as reduction in cell viability by SRB assay; format: functional, cell-based
HeLa [8] = assay: Cytotoxicity against human HeLa cells assessed as reduction in cell viability by SRB assay; format: functional, cell-based
DU-145 = assay: Cytotoxicity against human DU145 cells assessed as reduction in cell viability by SRB assay; format: functional, cell-based
[9] = Cytotoxicity against human MCF7/DX cells assessed as reduction in cell viability by SRB assay; format: functional, cell-based
HepG2 [10] = assay: Cytotoxicity against human HepG2 cells assessed as reduction in cell viability by SRB assay; format: functional, cell-based
HepG2 [11] = assay: Cytotoxicity against human HepG2 cells assessed as reduction in cell viability; format: functional, cell-based
DLD-1 = assay: Cytotoxicity against human DLD1 cells assessed as reduction in cell viability; format: functional, cell-based
HeLa [12] = assay: Antiproliferative activity against human HeLa cells by MTT assay; format: functional, cell-based
NCI-H157 = assay: Cytotoxicity against human NCI-H157 cells assessed as reduction in cell viability after 48 hrs by SRB assay; format: functional, cell-based; conditions: NCI-H157, 48 h
BHK-21 = assay: Cytotoxicity against BHK21 cells assessed as reduction in cell viability after 48 hrs by SRB assay; format: cell-based; conditions: Mesocricetus auratus, BHK-21, 48 h
MDA-MB-231 = assay: Anticancer activity against human MDA-MB-231 cells by MTT assay; format: functional, cell-based
K562 [13] = assay: Anticancer activity against human K562 cells by MTT assay; format: functional, cell-based
A549 [14] = assay: Anticancer activity against human A549 cells by MTT assay; format: functional, cell-based
HeLa [15] = assay: Anticancer activity against human HeLa cells by MTT assay; format: functional, cell-based

Chain of RAC-alpha serine/threonine-protein kinase (P31749 whole entry): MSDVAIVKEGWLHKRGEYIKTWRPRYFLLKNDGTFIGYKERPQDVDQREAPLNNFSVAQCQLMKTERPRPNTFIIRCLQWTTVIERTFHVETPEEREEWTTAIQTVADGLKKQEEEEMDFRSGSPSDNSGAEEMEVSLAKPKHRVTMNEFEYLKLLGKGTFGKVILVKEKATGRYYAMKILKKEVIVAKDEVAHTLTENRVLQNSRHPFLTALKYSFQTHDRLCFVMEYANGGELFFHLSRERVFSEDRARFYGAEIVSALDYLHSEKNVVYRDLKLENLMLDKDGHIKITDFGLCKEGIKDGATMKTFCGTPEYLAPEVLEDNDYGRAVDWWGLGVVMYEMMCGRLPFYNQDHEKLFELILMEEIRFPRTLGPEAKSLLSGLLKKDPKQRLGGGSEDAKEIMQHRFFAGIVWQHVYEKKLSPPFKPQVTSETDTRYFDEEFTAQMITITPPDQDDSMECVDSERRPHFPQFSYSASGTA

Row | Structure (SMILES) | IC50 (A549 [6]) | IC50 (SK-OV-3) | IC50 (MCF7 [7]) | IC50 (HeLa [8]) | IC50 (DU-145) | IC50 [9] | IC50 (HepG2 [10]) | other results
1 | Cc1c(Cc2ccc(NC(=O)Nc3ccc(F)c(F)c3)nc2)c(=O)oc2cc(O)c(C(C)(C)C)cc12 |  |  |  |  |  |  |  | IC50 [1]: < 10 µM; IC50 (HeLa [2]): 1.66 to 7.86 µM; IC50 (MCF7 [3]): 1.66 to 7.86 µM; IC50 (K562 [4]): 1.66 to 7.86 µM; IC50 (A549 [5]): 1.66 to 7.86 µM
2 | Cc1cc(=O)oc2cc(OCCOCCN3C(=O)C(=O)c4cc(F)ccc43)ccc12 | 10.3 to 50 µM | 10.3 to 50 µM | 10.3 to 50 µM | 10.3 to 50 µM | 10.3 to 50 µM | 10.3 to 50 µM | 10.3 to 50 µM | 
3 | O=C(c1cnc(Nc2ccc(F)cc2)s1)c1cc2ccccc2oc1=O |  |  |  |  |  |  |  | IC50 (HepG2 [11]): 5.66 to 100 µg/mL (≈ 15.4 to 273 µM); IC50 (DLD-1): 5.66 to 100 µg/mL (≈ 15.4 to 273 µM)
4 | CNc1ncc(C(=O)c2cc3ccccc3oc2=O)s1 |  |  |  |  |  |  |  | IC50 (HepG2 [11]): 5.66 to 100 µg/mL (≈ 19.8 to 349 µM); IC50 (DLD-1): 5.66 to 100 µg/mL (≈ 19.8 to 349 µM)
5 | COC(=O)c1sc(N/N=C(\C)c2cc3ccccc3oc2=O)nc1C |  |  |  |  |  |  |  | IC50 (HeLa [12]): 0.0091 to 0.569 µM
6 | CC[C@]1(O)C[C@H]2CN(CCc3c([nH]c4ccccc34)[C@@](C(=O)OC)(c3cc4c(cc3OC)N(C=O)[C@H]3[C@@](O)(C(=O)OC)[C@H](OC(C)=O)[C@]5(CC)C=CCN6CC[C@]43[C@@H]65)C2)C1 [VINCRISTINE] |  |  |  |  |  |  |  | IC50 (NCI-H157): 1.03 µM; IC50 (BHK-21): 1.08 µM
7 | Cc1ccc(-n2nc(C)n(-n3c(-c4cc5ccccc5oc4=O)cs/c3=N\c3ccc(Cl)cc3)c2=O)cc1 |  |  |  |  |  |  |  | IC50 (MDA-MB-231): 0.16 to 1.12 µg/mL (≈ 0.295 to 2.07 µM); IC50 (K562 [13]): 0.16 to 1.12 µg/mL (≈ 0.295 to 2.07 µM); IC50 (A549 [14]): 0.16 to 1.12 µg/mL (≈ 0.295 to 2.07 µM); IC50 (HeLa [15]): 0.16 to 1.12 µg/mL (≈ 0.295 to 2.07 µM)
8 | Cc1cc(=O)oc2cc(OCCOCCN3C(=O)/C(=N\O)c4cc(Cl)ccc43)ccc12 | 10.3 to 50 µM | 10.3 to 50 µM | 10.3 to 50 µM | 10.3 to 50 µM | 10.3 to 50 µM | 10.3 to 50 µM | 10.3 to 50 µM | 
9 | COc1cc([C@@H]2c3cc4c(cc3[C@@H](O[C@@H]3O[C@@H]5CO[C@@H](C)O[C@H]5[C@H](O)[C@H]3O)[C@H]3COC(=O)[C@H]23)OCO4)cc(OC)c1O [ETOPOSIDE] | > 50 µM |  |  | > 50 µM |  | > 50 µM |  | 
10 | O=c1oc2ccccc2cc1-c1nnc2n1N=C(c1ccc(Br)cc1)CS2 |  |  |  |  |  |  |  | IC50 (NCI-H157): 1.01 to 5.72 µM; IC50 (BHK-21): 1.01 to 5.72 µM
11 | O=c1oc2ccccc2cc1-c1nnc2n1N=C(c1ccc(Cl)cc1)CS2 |  |  |  |  |  |  |  | IC50 (NCI-H157): 1.01 to 5.72 µM; IC50 (BHK-21): 1.01 to 5.72 µM
12 | O=C(c1cnc(Nc2ccccc2)s1)c1cc2ccccc2oc1=O |  |  |  |  |  |  |  | IC50 (HepG2 [11]): 5.66 to 100 µg/mL (≈ 16.2 to 287 µM); IC50 (DLD-1): 5.66 to 100 µg/mL (≈ 16.2 to 287 µM)
13 | C=CCNc1ncc(C(=O)c2cc3ccccc3oc2=O)s1 |  |  |  |  |  |  |  | IC50 (HepG2 [11]): 5.66 to 100 µg/mL (≈ 18.1 to 320 µM); IC50 (DLD-1): 5.66 to 100 µg/mL (≈ 18.1 to 320 µM)
14 | Cc1ccc2c(c1)/C(=N/O)C(=O)N2CCOCCOc1ccc2c(C)cc(=O)oc2c1 | 10.3 to 50 µM | 10.3 to 50 µM | 10.3 to 50 µM | 10.3 to 50 µM | 10.3 to 50 µM | 10.3 to 50 µM | 10.3 to 50 µM | 
15 | Cc1cc(=O)oc2cc(OCCOCCN3C(=O)C(=O)c4cc(Cl)ccc43)ccc12 | 10.3 to 50 µM | 10.3 to 50 µM | 10.3 to 50 µM | 10.3 to 50 µM | 10.3 to 50 µM | 10.3 to 50 µM | 10.3 to 50 µM | 
16 | COC(=O)c1sc(N/N=C(\C)c2cc3cc(Cl)ccc3oc2=O)nc1C |  |  |  |  |  |  |  | IC50 (HeLa [12]): 0.0091 to 0.569 µM
17 | O=c1oc2ccccc2cc1C1=Nn2c(nnc2-c2cc3ccccc3oc2=O)SC1 |  |  |  |  |  |  |  | IC50 (NCI-H157): 1.01 to 5.72 µM; IC50 (BHK-21): 1.01 to 5.72 µM
18 | O=C(c1cnc(Nc2ccc(Br)cc2)s1)c1cc2ccccc2oc1=O |  |  |  |  |  |  |  | IC50 (HepG2 [11]): 5.66 to 100 µg/mL (≈ 13.2 to 234 µM); IC50 (DLD-1): 5.66 to 100 µg/mL (≈ 13.2 to 234 µM)
19 | Cc1cc(=O)oc2cc(OCCOCCN3C(=O)C(=O)c4ccccc43)ccc12 | 10.3 to 50 µM | 10.3 to 50 µM | 10.3 to 50 µM | 10.3 to 50 µM | 10.3 to 50 µM | 10.3 to 50 µM | 10.3 to 50 µM | 
20 | CO/N=C1\C(=O)N(CCOCCOc2ccc3c(C)cc(=O)oc3c2)c2ccc(F)cc21 | 10.3 to 50 µM | 10.3 to 50 µM | 10.3 to 50 µM | 10.3 to 50 µM | 10.3 to 50 µM | 10.3 to 50 µM | 10.3 to 50 µM | 
21 | Cc1ccc2c(c1)C(=O)C(=O)N2CCOCCOc1ccc2c(C)cc(=O)oc2c1 | 10.3 to 50 µM | 10.3 to 50 µM | 10.3 to 50 µM | 10.3 to 50 µM | 10.3 to 50 µM | 10.3 to 50 µM | 10.3 to 50 µM | 
22 | COc1ccc(/N=c2\scc(-c3cc4ccccc4oc3=O)n2-n2c(C)nn(-c3ccc(C)cc3)c2=O)cc1 |  |  |  |  |  |  |  | IC50 (MDA-MB-231): 0.16 to 1.12 µg/mL (≈ 0.298 to 2.08 µM); IC50 (K562 [13]): 0.16 to 1.12 µg/mL (≈ 0.298 to 2.08 µM); IC50 (A549 [14]): 0.16 to 1.12 µg/mL (≈ 0.298 to 2.08 µM); IC50 (HeLa [15]): 0.16 to 1.12 µg/mL (≈ 0.298 to 2.08 µM)
23 | C/C(=N\Nc1ncc(C(=O)c2cc3ccccc3oc2=O)s1)c1ccc(C)cc1 |  |  |  |  |  |  |  | EC50 (HepG2 [11]): 3.7 to 9.54 µg/mL (≈ 9.17 to 23.6 µM); EC50 (DLD-1): 3.7 to 9.54 µg/mL (≈ 9.17 to 23.6 µM)
24 | Cc1nn(-c2ccc(Br)cc2)c(=O)n1-n1c(-c2cc3ccccc3oc2=O)cs/c1=N\c1ccccc1 |  |  |  |  |  |  |  | IC50 (MDA-MB-231): 0.16 to 1.12 µg/mL (≈ 0.28 to 1.96 µM); IC50 (K562 [13]): 0.16 to 1.12 µg/mL (≈ 0.28 to 1.96 µM); IC50 (A549 [14]): 0.16 to 1.12 µg/mL (≈ 0.28 to 1.96 µM); IC50 (HeLa [15]): 0.16 to 1.12 µg/mL (≈ 0.28 to 1.96 µM)
25 | COc1ccc(/N=c2\scc(-c3cc4ccccc4oc3=O)n2-n2c(C)nn(-c3ccccc3)c2=O)cc1 |  |  |  |  |  |  |  | IC50 (MDA-MB-231): 0.16 to 1.12 µg/mL (≈ 0.306 to 2.14 µM); IC50 (K562 [13]): 0.16 to 1.12 µg/mL (≈ 0.306 to 2.14 µM); IC50 (A549 [14]): 0.16 to 1.12 µg/mL (≈ 0.306 to 2.14 µM); IC50 (HeLa [15]): 0.16 to 1.12 µg/mL (≈ 0.306 to 2.14 µM)
26 | CO/N=C1\C(=O)N(CCOCCOc2ccc3c(C)cc(=O)oc3c2)c2ccccc21 | 10.3 to 50 µM | 10.3 to 50 µM | 10.3 to 50 µM | 10.3 to 50 µM | 10.3 to 50 µM | 10.3 to 50 µM | 10.3 to 50 µM | 

Source: ChEMBL document CHEMBL4373717, “Coumarin-containing hybrids and their anticancer activities” (Eur J Med Chem, 2019)
